For assay [1], the target named is T1, HGSTM1 (Homo sapiens, UniProt P09488).
T1 construct: gene GSTM1; commercial human GST M1 (Oxford Biomedical Research GS65)
T1 sequence (P09488 2-218): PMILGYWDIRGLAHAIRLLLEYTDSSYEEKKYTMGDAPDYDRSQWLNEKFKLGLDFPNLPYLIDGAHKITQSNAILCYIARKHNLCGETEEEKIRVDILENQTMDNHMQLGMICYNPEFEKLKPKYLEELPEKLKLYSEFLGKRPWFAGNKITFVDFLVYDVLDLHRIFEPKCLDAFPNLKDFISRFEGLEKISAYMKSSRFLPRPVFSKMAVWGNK
In words: GSH-CDNB conjugation, absorbance […] nm, single concentration. It counts as biochemical.

For assay [2], the target named is T2, Ts25GST (Taenia solium, UniProt Q8MWS0).
T2 construct: about 25 kDa on SDS-PAGE; dimer; no tag mentioned
T2 sequence (Q8MWS0 1-219): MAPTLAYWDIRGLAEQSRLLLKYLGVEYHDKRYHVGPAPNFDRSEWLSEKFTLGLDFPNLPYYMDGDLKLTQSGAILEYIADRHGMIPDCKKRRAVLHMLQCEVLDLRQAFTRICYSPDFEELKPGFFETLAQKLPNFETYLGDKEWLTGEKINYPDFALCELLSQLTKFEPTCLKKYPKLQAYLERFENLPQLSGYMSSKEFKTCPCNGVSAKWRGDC
In words: GSH-CDNB conjugation, absorbance […] nm, dose-response. It counts as biochemical.

Broadly, the inhibition is the percentage by which the read-out fell short of the control. As usually defined, the IC50 is the point on the concentration scale where inhibition reaches its midpoint. `O=C(CCN1C(=O)c2ccccc2C1=O)Nc1ccc(Nc2ccccc2)cc1` [i15] yielded an inhibition at 40 µM in assay [1] of 30.8 ± 1.9%. This compound gave an IC50 in assay [2] of 25.7 ± 1.1 µM.

In the case of `O=C(CSc1ncc(-c2ccccc2)nn1)NC1=NN=C(c2ccccc2)CS1` [i11], the inhibition at 40 µM in assay [1] stood at 33.4 ± 2.2%.

Values taken from paper PMC11760891, “Discovery and Characterization of Two Selective Inhibitors for a Mu-Class Glutathione S-Transferase of 25 kDa from Taenia solium Using Computational and Bioinformatics Tools” (Biomolecules, 2024).
